Experimental data taken from patent US9873702B2, “Heterocyclic compounds as biogenic amine transport modulators” (Southern Research Institute, priority 2014, dated 2018).
Where two headings read alike, the source gives them in different places.

What was measured:
[1] = molecular target: T1, serotonin transporter (SERT) (Rattus norvegicus, UniProt P31652); experiment: Serotonin reuptake ([^3H]serotonin uptake) inhibition in rat brain synaptosomes; type: biochemical
T1 construct: Freshly removed whole brain minus cerebellum and caudate was homogenized; from tissue; host or cells: rat whole brain minus cerebellum and caudate, synaptosomes

DAT = molecular target: T2, DAT (Rattus norvegicus, UniProt P23977); experiment: Dopamine transporter binding, inhibition of [^3H]WIN35428 binding in rat caudate membranes; settings: for EC50: read-out: WIN Binding EC50 (μM ± SD)
T2 construct: from tissue; host or cells: rat caudate membranes
Method: The ability of test drugs to inhibit [^3H]WIN35428 binding to DAT in rat caudate membranes was assessed as follows. For each experiment, caudates from four rat brains were suspended in 15 mL ice cold assay buffer (50 mM sodium phosphate pH 7.4) and homogenized using a polytron (setting 6, 20 sec). The homogenate was centrifuged at 30,000×g for 10 minutes at 4° C. The pellet was resuspended with vigorous vortexing in 15 mL fresh ice cold assay buffer, and the centrifugation was repeated. The pellet was resuspended in 15 mL fresh ice cold assay buffer with vigorous vortexing followed by six strokes with a glass-on-glass hand-held homogenizer and was diluted to a final volume of 235 mL in ice cold assay buffer. [^3H]WIN35428 was diluted to 10 nM in assay buffer that contained 25 μg/mL chymostatin, 25 μg/mL leupeptin, 0.1 mM EDTA, and 0.1 mM EGTA. Each assay tube contained 0.75 mL membrane preparation, 0.15 mL test drug diluted in assay buffer containing 1 mg/mL bovine serum albumin, and 0.1 mL [^3H]WIN35428 preparation (final concentration of 1 nM). Assays were initiated by the addition of membranes and were terminated after 2 hours at 25° C. by rapid vacuum filtration. Retained tritium was measured as described. The data from three experiments were pooled and fit to a dose-response curve equation (using Kaleidagraph), to yield an Emax and EC50 value.

[2] = molecular target: T3, dopamine transporter (DAT) (Rattus norvegicus, UniProt P23977); experiment: Dopamine reuptake ([^3H]dopamine uptake) inhibition in rat brain synaptosomes
[3] = molecular target: norepinephrine transporter (NET) (Rattus norvegicus, UniProt Q9WTR4); experiment: Norepinephrine reuptake ([^3H]norepinephrine uptake) inhibition in rat brain synaptosomes; settings: for NE Uptake Emax (% I ± SD): maximal inhibition from dose-response fit
Method: Freshly removed whole brain minus cerebellum and caudate was homogenized in 10% ice-cold sucrose with 12 strokes of a hand-held Potter-Elvehjem homogenizer followed by centrifugation at 1000×g for 10 minutes. The supernatants were saved on ice and used immediately. Transporter activity at NET was assessed using 10 nM [^3H]norepinephrine. […] Uptake inhibition assays were conducted at 37° C. and were initiated by adding 100 μL of tissue to 900 μL assay buffer containing test drug and [^3H]norepinephrine. Test drugs were diluted in assay buffer containing 1 mg/mL bovine serum albumin. Nonspecific uptake was measured by incubating in the presence of 10 μM indatraline. The reactions were stopped after 10 minutes by rapid vacuum filtration with a cell harvester (BRANDEL) over GF/B filters (Whatman) presoaked in wash buffer maintained at 25° C. (10 mM Tris-HCl, pH 7.4/150 mM NaCl). Filters were rinsed with 6 mL wash buffer and retained tritium was quantified by a MicroBeta liquid scintillation counter (PerkinElmer) after overnight extraction in 0.6 mL of liquid scintillation cocktail (Cytoscint, ICN). The data from three experiments were pooled and fit to a dose-response curve equation (using Kaleidagraph), to yield an Emax and EC50 value.
The data from three experiments were pooled and fit to a dose-response curve equation (using KaleidaGraph; Synergy Software, Reading, Pa.) to yield an Emax and IC50 value.

[4] = molecular target: T3, dopamine transporter (DAT); experiment: Dopamine transporter-mediated [^3H]MPP^+ release, shift of D-amphetamine-induced release, rat caudate synaptosomes; type: biochemical; parameters: Freshly removed caudate was homogenized in 10% ice-cold sucrose; from tissue; host or cells: rat caudate synaptosomes; settings: for Apparent Kc: [3H]MPP+ release, Apparent Kc = [Blocker]/((EC50-2/EC50-1) − 1), negative when shifted EC50 is less than control; for Kb: apparent Ke from shift of D-amphetamine-induced [^3H]MPP^+ release, compound at the concentration of column 1, read-out: Ke App
[5] = mean ± S.D., n = 3, read-out: SERT Uptake IC50
[6] = 2 h, read-out: DAT Binding εmax
[7] = DAT Uptake IC50, [3H]DA uptake inhibition, mean ± S.D., n = 3
[8] = IC50 for DAT Uptake Inhibition, rounded value as listed in Table 10
[9] = read-out: Emax for DAT Uptake Inhibition
[10] = read-out: NET Uptake IC50, mean ± S.D., n = 3
[11] = rat brain synaptosomes, 5 nM [^3H]serotonin, 30 min, 25° C., read-out: 5HT Uptake EC50 (nM ± SD)
[12] = rat brain synaptosomes, 5 nM [^3H]serotonin, maximal inhibition from dose-response fit, read-out: 5HT Uptake Emax (% I ± SD)
[13] = read-out: WIN Binding Emax (% I ± SD)
[14] = DA Uptake EC50 (nM ± SD), rat caudate synaptosomes, 5 nM [^3H]dopamine, 15 min, 25° C., three experiments pooled
[15] = read-out: DA Uptake Emax (% I ± SD)
[16] = rat brain synaptosomes, 10 nM [^3H]norepinephrine
[17] = read-out: NE Uptake EC50 (nM ± SD), rat brain synaptosomes, 10 nM [^3H]norepinephrine, 10 min, 37° C.
[18] = Emax of D-amphetamine for [^3H]MPP^+ release in presence of 5000 nM test compound
[19] = mean ± S.D., n = 3, read-out: SERT Uptake Emax
[20] = Emax of D-amphetamine for [^3H]MPP^+ release in presence of 500 nM test compound
[21] = Emax of D-amphetamine for [^3H]MPP^+ release in presence of 250 nM test compound

T2 sequence (P23977 whole entry): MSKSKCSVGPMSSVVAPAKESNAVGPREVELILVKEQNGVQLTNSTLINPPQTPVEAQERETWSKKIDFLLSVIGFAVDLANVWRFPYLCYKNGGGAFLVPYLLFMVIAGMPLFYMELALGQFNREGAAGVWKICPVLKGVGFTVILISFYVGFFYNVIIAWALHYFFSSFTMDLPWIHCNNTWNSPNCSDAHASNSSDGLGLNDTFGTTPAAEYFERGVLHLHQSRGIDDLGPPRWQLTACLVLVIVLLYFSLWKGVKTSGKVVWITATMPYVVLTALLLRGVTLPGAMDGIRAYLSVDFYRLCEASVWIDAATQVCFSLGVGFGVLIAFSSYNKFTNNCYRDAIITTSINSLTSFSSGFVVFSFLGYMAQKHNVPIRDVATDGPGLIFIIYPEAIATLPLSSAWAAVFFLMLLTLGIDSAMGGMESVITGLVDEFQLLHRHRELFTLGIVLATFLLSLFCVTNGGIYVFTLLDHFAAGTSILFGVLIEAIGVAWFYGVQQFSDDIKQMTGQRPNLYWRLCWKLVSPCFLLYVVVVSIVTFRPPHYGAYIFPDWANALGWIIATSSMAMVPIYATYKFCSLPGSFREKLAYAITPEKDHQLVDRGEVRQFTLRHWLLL
T3 sequence (P23977 whole entry): as above
T1 sequence (P31652 whole entry): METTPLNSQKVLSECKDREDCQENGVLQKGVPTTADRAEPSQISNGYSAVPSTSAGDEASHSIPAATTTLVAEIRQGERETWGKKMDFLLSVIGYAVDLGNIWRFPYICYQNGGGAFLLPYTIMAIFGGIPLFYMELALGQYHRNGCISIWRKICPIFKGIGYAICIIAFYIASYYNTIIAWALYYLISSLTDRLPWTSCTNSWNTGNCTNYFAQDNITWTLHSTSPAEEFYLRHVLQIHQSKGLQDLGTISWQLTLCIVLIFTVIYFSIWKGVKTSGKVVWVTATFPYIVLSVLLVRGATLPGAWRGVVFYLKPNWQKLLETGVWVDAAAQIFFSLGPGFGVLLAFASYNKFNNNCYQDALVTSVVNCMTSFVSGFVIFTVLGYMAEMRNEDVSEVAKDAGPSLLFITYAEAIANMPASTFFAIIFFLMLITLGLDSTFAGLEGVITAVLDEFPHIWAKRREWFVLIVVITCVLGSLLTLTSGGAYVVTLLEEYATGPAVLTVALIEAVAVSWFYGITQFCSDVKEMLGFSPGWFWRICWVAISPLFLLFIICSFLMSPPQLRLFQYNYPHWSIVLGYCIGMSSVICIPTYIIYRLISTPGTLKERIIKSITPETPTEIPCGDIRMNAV

IC50 [1, 5] [nM] | Emax (DAT; [6]) [%] | IC50 [2, 7] [nM] | IC50 [2, 8] [nM] | Emax [2, 9] [%] | NET Uptake Emax ([3]; mean ± S.D., n = 3) [%] | IC50 [3, 10] [nM] | Apparent Kc [4] [nM] | EC50 (DAT) [µM] | NE Uptake Emax (% I ± SD) [3, 16] [% I] | IC50 [3, 17] [nM] | Kb [4] [nM] | Emax [1, 19] [%] | Emax ([2]; read-out: DAT Uptake Emax) [%] | SMILES | further results
20 ± 5 | 65 ± 6 | 4.4 ± 0.8 | 4 | 70 | 71 ± 2 | 90 ± 15 | -553 |  |  |  |  |  |  | CS(=O)(=O)Nc1ccc(-c2nc(NCC(c3ccccc3)c3ccccc3)c3ccccc3n2)cc1 [SRI-29577] | 
49 ± 27 | 100 ± 3 | 7.1 ± 2.2 | 7 | 70 | 68 ± 7 | 143 ± 61 | 1940 |  |  |  |  |  |  | CN(C)c1ccc(-c2nc(NCC(c3ccccc3)c3ccccc3)c3ccccc3n2)cc1 [SRI-29786] | 
 |  |  |  |  |  |  |  | 1.8 ± 0.4 | 64 ± 10 | 1740 ± 1150 | 7050 |  |  | CN(C)c1ncc(-c2nc(NC(c3ccccc3)c3ccccc3)c3ccccc3n2)cn1 [compound 12, N-Benzhydryl-2-(2-(dimethylamino)pyrimidin-5-yl)quinazolin-4-amine] | IC50 [1, 11]: 699 ± 164 nM; Emax [1, 12]: 48 ± 3%; Emax (DAT; [13]): 71 ± 4%; IC50 [2, 14]: 174 ± 58 nM; Emax [2, 15]: 66 ± 4%; D-Amphetamine Emax (% ± SD) [4, 18]: 98 ± 1%
 |  |  |  |  |  |  |  | 2.7 ± 0.3 | 62 ± 5 | 5850 ± 1750 | 25800 |  |  | c1ccc(C(Nc2nc(-c3ccc4[nH]ccc4c3)nc3ccccc23)c2ccccc2)cc1 [compound 13, N-Benzhydryl-2-(1H-indol-5-yl)quinazolin-4-amine] | IC50 [1, 11]: 6380 ± 2640 nM; Emax [1, 12]: 56 ± 9%; Emax (DAT; [13]): 77 ± 2%; IC50 [2, 14]: 212 ± 49 nM; Emax [2, 15]: 71 ± 3%; D-Amphetamine Emax (% ± SD) [4, 18]: 96 ± 3%
37 ± 18 | 76 ± 2 | 20 ± 1 | 20 | 73 | 73 ± 4 | 181 ± 46 | 1820 | 1.7 ± 0.2 | 73 ± 4 | 181 ± 46 | 1820 | 55 ± 5 | 73 ± 1 | CN(C)c1ncc(-c2nc(NCC(c3ccccc3)c3ccccc3)c3ccccc3n2)cn1 [compound 16, 2-(2-(Dimethylamino)pyrimidin-5-yl)-N-(2,2-diphenylethyl)quinazolin-4-amine] | D-Amphetamine Emax (% ± SD) [4, 20]: 101 ± 3%
68 ± 13 | 87 ± 4 | 10 ± 1 | 10 | 74 | 70 ± 3 | 290 ± 52 | 456 | 0.9 ± 0.2 | 70 ± 3 | 290 ± 52 | 456 | 54 ± 2 | 74 ± 1 | c1ccc(C(CNc2nc(-c3ccc4[nH]ccc4c3)nc3ccccc23)c2ccccc2)cc1 [compound 17, N-(2,2-Diphenylethyl)-2-(1H-indol-5-yl)quinazolin-4-amine] | D-Amphetamine Emax (% ± SD) [4, 21]: 94 ± 2%
 |  |  |  |  |  |  |  | 2.2 ± 0.5 | 64 ± 5 | 8130 ± 2270 | 64600 |  |  | CN(C)c1ncc(-c2nc(NCCC(c3ccccc3)c3ccccc3)c3ccccc3n2)cn1 [compound 20, N-(3,3-Diphenylpropyl)-2-(2-(Dimethylamino)Pyrimidin-5-yl)Quinazolin-4-Amine] | D-Amphetamine Emax (% ± SD) ([4]; Emax of D-amphetamine for [^3H]MPP^+ release in presence of 12500 nM test compound): 103 ± 2%
 |  |  |  |  |  |  |  | 0.2 | 77 ± 3 | 346 ± 59 | 886 |  |  | c1ccc(C(CCNc2nc(-c3ccc4[nH]ccc4c3)nc3ccccc23)c2ccccc2)cc1 [compound 21, N-(3,3-Diphenylpropyl)-2-(1H-Indol-5-yl)Quinazolin-4-Amine] | D-Amphetamine Emax (% ± SD) [4, 20]: 78 ± 2%; effect on the d-amphetamine Emax value, in words ([4]; d-amphetamine-induced DAT-mediated [^3H]MPP^+ release, blocking concentration ˜25 times IC50 for DAT uptake inhibition): no significant effect
42 ± 12 | 83 ± 3 | 7.3 ± 2.2 | 7 | 63 | 71 ± 6 | 147 ± 63 | 912 | 1.2 ± 0.2 | 71 ± 6 | 147 ± 63 | 912 | 51 ± 2 | 63 ± 3 | CN(C)c1ccc(-c2nc(NCC(c3ccccc3)c3ccccc3)c3ccccc3n2)cn1 [compound 69, 2-(6-(Dimethylamino)Pyridin-3-yl)-N-(2,2-Diphenylethyl)Quinazolin-4-Amine] | D-Amphetamine Emax (% ± SD) [4, 21]: 99 ± 2%
54 ± 7 | 47 ± 6 | 13 ± 2 |  |  | 71 ± 2 | 259 ± 41 |  |  | 71 ± 2 | 259 ± 41 |  | 51 ± 1 | 73 ± 2 | CN(C)c1ncc(-c2nc(NCC(O)(c3ccccc3)c3ccccc3)c3ccccc3n2)cn1 [compound 80, 2-((2-(2-(Dimethylamino)Pyrimidin-5-yl)Quinazolin-4-yl)Amino)-1,1-Diphenylethanol] | 
35 ± 9 | 55 ± 3 | 11 ± 2 |  |  | 73 ± 6 | 203 ± 79 |  |  | 73 ± 6 | 203 ± 79 |  | 57 ± 2 | 70 ± 2 | OC(CNc1nc(-c2ccc3[nH]ccc3c2)nc2ccccc12)(c1ccccc1)c1ccccc1 [compound 81, 2-((2-(1H-Indol-5-yl)Quinazolin-4-yl)Amino)-1,1-Diphenylethanol] | 
28 ± 6 | 62 ± 7 | 18 ± 3 |  |  | 77 ± 2 | 132 ± 16 |  |  | 77 ± 2 | 132 ± 16 |  | 54 ± 2 | 71 ± 2 | c1ccc(C(CNc2nc(-c3cnc4nccn4c3)nc3ccccc23)c2ccccn2)cc1 (centres unmarked) [compound 98, 2-(Imidazo[1,2-A]Pyrimidin-6-yl)-N-(2-Phenyl-2-(Pyridin-2-yl)Ethyl)Quinazolin-4-Amine] | 
3.9 ± 0.4 | 34 ± 3 | 9.3 ± 1.1 |  |  | 76 ± 9 | 69 ± 18 |  |  | 76 ± 3 | 69 ± 18 |  | 56 ± 1 | 65 ± 1 | OC(CNc1nc(-c2cnc3nccn3c2)nc2ccccc12)(c1ccccc1)c1ccccc1 [compound 99, 2-((2-(Imidazo[1,2-A]Pyrimidin-6-yl)Quinazolin-4-yl)Amino)-1,1-Diphenylethanol] | 
83 ± 28 | 50 ± 4 | 12 ± 2 |  |  | 65 ± 4 | 153 ± 55 |  |  | 65 ± 4 | 153 ± 55 |  | 59 ± 4 | 72 ± 2 | c1ccc(C(CNc2nc(-c3ccc4nccn4c3)nc3ccccc23)C2CCCCC2)cc1 (centres unmarked) [compound 100, N-(2-Cyclohexyl-2-Phenylethyl)-2-(Imidazo[1,2-A]Pyridin-6-yl)Quinazolin-4-Amine] | 
35 ± 11 | 44 ± 3 | 21 ± 3 |  |  | 75 ± 3 | 78 ± 17 |  |  | 75 ± 3 | 78 ± 17 |  | 59 ± 3 | 70 ± 2 | c1ccc(C(CNc2nc(-c3ccc4nccn4c3)nc3ccccc23)c2cccnc2)cc1 (centres unmarked) [compound 131, 2-(Imidazo[1,2-A]Pyridin-6-yl)-N-(2-Phenyl-2-(Pyridin-3-yl)Ethyl)Quinazolin-4-Amine] | 
